Measured values reported in patent US11649231B2, “Compound as mTOR inhibitor and use thereof” (MEDICINAL BIOCONVERGENCE RESEARCH CENTER, priority 2018, dated 2023).

system: mTORC1; assay: mTORC1 activity inhibitory effect at 20 μM, phospho-p70 S6 Kinase Western blot in SW620 cells; settings: leucine-free 1 h 30 min, then leucine 15 min, vs DMSO control
Experimental: In order to evaluate the inhibitory effect of the compounds according to the present invention on the activity of mTORC1, an experiment was performed in the following manner.

Compound | mTORC1 inhibitory effect (%)
Cn1cc(/C=C2\SC(=S)N(Cc3ccco3)C2=O)cn1 [Example 1-2, (5Z)-3-(2-furylmethyl)-5-[(1-methylpyrazol-4-yl)methylene]-2-thioxo-thiazolidin-4-one] | 74.4 ± 0.2
CN1C(=O)/C(=C/c2cnn(-c3ccccc3)c2)SC1=S [Example 1-3, (5Z)-3-methyl-5-[(1-phenylpyrazol-4-yl)methylene]-2-thioxo-thiazolidin-4-one] | 53.97 ± 1.49
CCN1C(=O)/C(=C/c2cnn(-c3ccccc3)c2)SC1=S [Example 1-4, (5Z)-3-ethyl-5-[(1-phenylpyrazol-4-yl)methylene]-2-thioxo-thiazolidin-4-one] | 68.36 ± 1.69
C=CCN1C(=O)/C(=C/c2cnn(-c3ccccc3)c2)SC1=S [Example 1-5, (5Z)-3-allyl-5-[(1-phenylpyrazol-4-yl)methylene]-2-thioxo-thiazolidin-4-one] | 45.82 ± 3.59
CN1C(=O)/C(=C/c2cnn(-c3ccccc3Cl)c2)SC1=S [Example 1-10, (5Z)-5-[[1-(2-chlorophenyl)pyrazol-4-yl]methylene]-3-methyl-2-thioxo-thiazolidin-4-one] | 50.52 ± 3.69
CCN1C(=O)/C(=C/c2cnn(-c3ccccc3Cl)c2)SC1=S [Example 1-11, (5Z)-5-[[1-(2-chlorophenyl)pyrazol-4-yl]methylene]-3-ethyl-2-thioxo-thiazolidin-4-one] | 67.22 ± 1.41
C=CCN1C(=O)/C(=C/c2cnn(-c3ccccc3Cl)c2)SC1=S [Example 1-12, (5Z)-3-allyl-5-[[1-(2-chlorophenyl)pyrazol-4-yl]methylene]-2-thioxo-thiazolidin-4-one] | 70.93 ± 2.39
CN1C(=O)/C(=C/c2cnn(-c3cccc(Cl)c3)c2)SC1=S [Example 1-14, (5Z)-5-[[1-(3-chlorophenyl)pyrazol-4-yl]methylene]-3-methyl-2-thioxo-thiazolidin-4-one] | 46.72 ± 14.22
CCN1C(=O)/C(=C/c2cnn(-c3cccc(Cl)c3)c2)SC1=S [Example 1-15, (5Z)-5-[[1-(3-chlorophenyl)pyrazol-4-yl]methylene]-3-ethyl-2-thioxo-thiazolidin-4-one] | 72.46 ± 1.79
C=CCN1C(=O)/C(=C/c2cnn(-c3cccc(Cl)c3)c2)SC1=S [Example 1-16, (5Z)-3-allyl-5-[[1-(3-chlorophenyl)pyrazol-4-yl]methylene]-2-thioxo-thiazolidin-4-one] | 3.74 ± 10.43
CN1C(=O)/C(=C/c2cnn(-c3ccc(Cl)cc3)c2)SC1=S [Example 1-18, (5Z)-5-[[1-(4-chlorophenyl)pyrazol-4-yl]methylene]-3-methyl-2-thioxo-thiazolidin-4-one] | 50.17 ± 12.77
CCN1C(=O)/C(=C/c2cnn(-c3ccc(Cl)cc3)c2)SC1=S [Example 1-19, (5Z)-5-[[1-(4-chlorophenyl)pyrazol-4-yl]methylene]-3-ethyl-2-thioxo-thiazolidin-4-one] | 54.17 ± 8.55
Cc1ccc(-n2cc(/C=C3\SC(=S)NC3=O)cn2)cc1 [Example 1-20, (5Z)-5-[[1-(p-tolyl)pyrazol-4-yl]methylene]-2-thioxo-thiazolidin-4-one] | 83.30 ± 1.76
Cc1ccc(-n2cc(/C=C3\SC(=S)N(C)C3=O)cn2)cc1 [Example 1-21, (5Z)-3-methyl-5-[[1-(p-tolyl)pyrazol-4-yl]methylene]-2-thioxo-thiazolidin-4-one] | 71.18 ± 5.04
CCN1C(=O)/C(=C/c2cnn(-c3ccc(C)cc3)c2)SC1=S [Example 1-22, (5Z)-3-ethyl-5-[[1-(p-tolyl)pyrazol-4-yl]methylene]-2-thioxo-thiazolidin-4-one] | 77.21 ± 0.84
C=CCN1C(=O)/C(=C/c2cnn(-c3ccc(C)cc3)c2)SC1=S [Example 1-23, (5Z)-3-allyl-5-[[1-(p-tolyl)pyrazol-4-yl]methylene]-2-thioxo-thiazolidin-4-one] | 15.74 ± 10.22
CCN1C(=O)/C(=C/c2cnn(-c3ccc(C(C)C)cc3)c2)SC1=S [Example 1-25, (5Z)-3-ethyl-5-[[1-(4-isopropylphenyl)pyrazol-4-yl]methylene]-2-thioxo-thiazolidin-4-one] | 36.86 ± 3.47
CCCCc1ccc(-n2cc(/C=C3\SC(=S)NC3=O)cn2)cc1 [Example 1-26, (5Z)-5-[[1-(4-butylphenyl)pyrazol-4-yl]methylene]-2-thioxo-thiazolidin-4-one] | 59.73 ± 3.55
CCCCc1ccc(-n2cc(/C=C3\SC(=S)N(CC)C3=O)cn2)cc1 [Example 1-27, (5Z)-5-[[1-(4-butylphenyl)pyrazol-4-yl]methylene]-3-ethyl-2-thioxo-thiazolidin-4-one] | 51.70 ± 7.12
Cc1ccc(-n2cc(/C=C3\SC(=S)NC3=O)cn2)cc1C [Example 1-28, (5Z)-5-[[1-(3,4-dimethylphenyl)pyrazol-4-yl]methylene]-2-thioxo-thiazolidin-4-one] | 47.13 ± 3.15

Compound | mTORC1 inhibitory effect (%)
CCN1C(=O)/C(=C/c2cnn(-c3ccc(C)c(C)c3)c2)SC1=S [Example 1-29, (5Z)-5-[[1-(3,4-dimethylphenyl)pyrazol-4-yl]methylene]-3-ethyl-2-thioxo-thiazolidin-4-one] | 4.02 ± 6.64
O=C1NC(=S)S/C1=C\c1cnn(-c2ccc3ccccc3c2)c1 [Example 1-31, (5Z)-5-[[1-(2-naphthyl)pyrazol-4-yl]methylene]-2-thioxo-thiazolidin-4-one] | 40.20 ± 1.02
CCN1C(=O)/C(=C/c2cnn(-c3ccc4ccccc4c3)c2)SC1=S [Example 1-32, (5Z)-3-ethyl-5-[[1-(2-naphthyl)pyrazol-4-yl]methylene]-2-thioxo-thiazolidin-4-one] | 75.04 ± 5.32
O=C1/C(=C/c2cnn(-c3ccccn3)c2)SC(=S)N1CCO [Example 1-34, (5Z)-3-(2-hydroxyethyl)-5-[[1-(2-pyridyl)pyrazol-4-yl]methylene]-2-thioxo-thiazolidin-4-one] | 82.94 ± 1.10
O=C1/C(=C/c2cnn(-c3cccnc3)c2)SC(=S)N1CCO [Example 1-36, (5Z)-3-(2-hydroxyethyl)-5-[[1-(3-pyridyl)pyrazol-4-yl]methylene]-2-thioxo-thiazolidin-4-one] | 80.88 ± 1.10
Cc1nn(-c2ccccc2)c(C)c1/C=C1\SC(=S)NC1=O [Example 1-38, (5Z)-5-[(3,5-dimethyl-1-phenyl-pyrazol-4-yl)methylene]-2-thioxo-thiazolidin-4-one] | 75.78 ± 2.60
O=C1NC(=O)/C(=C/c2cnn(-c3ccccc3F)c2)S1 [Example 1-40, (5Z)-5-[[1-(2-fluorophenyl)pyrazol-4-yl]methylene]thiazolidine-2,4-dione] | 41.03 ± 0.21
O=C1NC(=O)/C(=C/c2cnn(-c3cccc(F)c3)c2)S1 [Example 1-41, (5Z)-5-[[1-(3-fluorophenyl)pyrazol-4-yl]methylene]thiazolidine-2,4-dione] | 49.37 ± 7.34
O=C1NC(=O)/C(=C/c2cnn(-c3ccc(F)cc3)c2)S1 [Example 1-42, (5Z)-5-[[1-(4-fluorophenyl)pyrazol-4-yl]methylene]thiazolidine-2,4-dione] | 73.81 ± 2.77
O=C1NC(=O)/C(=C/c2cnn(-c3ccccc3Cl)c2)S1 [Example 1-43, (5Z)-5-[[1-(2-chlorophenyl)pyrazol-4-yl]methylene]thiazolidine-2,4-dione] | 52.34 ± 3.97
O=C1NC(=O)/C(=C/c2cnn(-c3cccc(Cl)c3)c2)S1 [Example 1-44, (5Z)-5-[[1-(3-chlorophenyl)pyrazol-4-yl]methylene]thiazolidine-2,4-dione] | 50.76 ± 5.28
O=C1NC(=O)/C(=C/c2cnn(-c3ccc(Cl)cc3)c2)S1 [Example 1-45, (5Z)-5-[[1-(4-chlorophenyl)pyrazol-4-yl]methylene]thiazolidine-2,4-dione] | 64.18 ± 3.13
Cc1ccc(-n2cc(/C=C3\SC(=O)NC3=O)cn2)cc1 [Example 1-46, (5Z)-5-[[1-(p-tolyl)pyrazol-4-yl]methylene]thiazolidine-2,4-dione] | 74.39 ± 0.62
CC(C)c1ccc(-n2cc(/C=C3\SC(=O)NC3=O)cn2)cc1 [Example 1-47, (5Z)-5-[[1-(4-isopropylphenyl)pyrazol-4-yl]methylene]thiazolidine-2,4-dione] | 74.36 ± 1.23
CCCCc1ccc(-n2cc(/C=C3\SC(=O)NC3=O)cn2)cc1 [Example 1-48, (5Z)-5-[[1-(4-butylphenyl)pyrazol-4-yl]methylene]thiazolidine-2,4-dione] | 69.53 ± 2.04
Cc1ccc(-n2cc(/C=C3\SC(=O)NC3=O)cn2)cc1C [Example 1-49, (5Z)-5-[[1-(3,4-dimethylphenyl)pyrazol-4-yl]methylene]thiazolidine-2,4-dione] | 68.36 ± 2.99
COc1ccccc1-n1cc(/C=C2\SC(=O)NC2=O)cn1 [Example 1-50, (5Z)-5-[[1-(2-methoxyphenyl)pyrazol-4-yl]methylene]thiazolidine-2,4-dione] | 38.93 ± 16.04
O=C1NC(=O)/C(=C/c2cnn(-c3ccc4ccccc4c3)c2)S1 [Example 1-51, (5Z)-5-[[1-(2-naphthyl)pyrazol-4-yl]methylene]thiazolidine-2,4-dione] | 53.08 ± 1.81
Cc1nn(-c2ccccc2)cc1/C=C1\SC(=O)NC1=O [Example 1-53, (5Z)-5-[(3-methyl-1-phenyl-pyrazol-4-yl)methylene]thiazolidine-2,4-dione] | 71.70 ± 1.70
Cc1nn(-c2ccccc2)c(C)c1/C=C1\SC(=O)NC1=O [Example 1-54, (5Z)-5-[(3,5-dimethyl-1-phenyl-pyrazol-4-yl]methylene]thiazolidine-2,4-dione] | 71.17 ± 4.46
